In ChEMBL document CHEMBL1152602, “A new therapeutic approach in Parkinson's disease: some novel quinazoline derivatives as dual selective phosphodiesterase 1 inhibitors and anti-inflammatory agents” (Bioorg Med Chem, 2009):

Legend:
Rattus norvegicus [1] = assay: Antiinflammatory activity in Sprague-Dawley rat assessed as inhibition of carrageenan-induced paw edema at 50 mg/kg, ip treated 60 mins before carrageenan challenge measured after 180 mins; assay type: functional; details: route intraperitoneal
Rattus norvegicus [2] = assay: Antiinflammatory activity in Sprague-Dawley rat assessed as inhibition of carrageenan-induced paw edema at 50 mg/kg, po treated 60 mins before carrageenan challenge measured after 90 mins; assay type: functional
Rattus norvegicus [3] = assay: Antiinflammatory activity in Sprague-Dawley rat assessed as inhibition of carrageenan-induced paw edema at 50 mg/kg, po treated 60 mins before carrageenan challenge measured after 180 mins; assay type: functional
[4] = Inhibition of PDE1
Rattus norvegicus [5] = assay: Antiinflammatory activity in Sprague-Dawley rat assessed as inhibition of carrageenan-induced paw edema at 50 mg/kg, ip treated 60 mins before carrageenan challenge measured after 90 mins; assay type: functional; details: route intraperitoneal
Rattus norvegicus [6] = assay: Toxicity in Sprague-Dawley rat assessed as gastrointestinal ulceration at 200 mg/kg, po once daily for 5 days; assay type: organism-based; set-up: dose 200 mg/kg, route oral; details: in vivo, 120 h

SMILES | IC50 [4] [µM] | inhibition in vivo at 50 mg/kg (Rattus norvegicus [1]) [%] | inhibition in vivo at 50 mg/kg (Rattus norvegicus [2]) [%] | inhibition in vivo at 50 mg/kg (Rattus norvegicus [3]) [%] | inhibition in vivo at 50 mg/kg (Rattus norvegicus [5]) [%] | Activity (Rattus norvegicus [6])
O=c1c2cc(Br)cc(Br)c2nc2c3c(-c4ccc(Cl)cc4)csc3ncn12 | 83.5 | 17 | 2 | 10 | 2 | –
O=c1c2cc(Br)ccc2nc2c3c(-c4ccccc4)cc(-c4ccc(Cl)cc4)nc3ncn12 | 95.1 | 80 | 67 | 77 | 69 | Non-toxic
Cc1sc2ncn3c(=O)c4ccccc4nc3c2c1C | 295 | 86 | 74 | 84 | 76 | Non-toxic
Cc1ccc(-c2cc(-c3ccc(Cl)cc3)c3c(ncn4c(=O)c5ccccc5nc34)n2)cc1 | 98.2 | 53 | 37 | 49 | 38 | –
Cc1ccc(-c2csc3ncn4c(=O)c5cc(Br)ccc5nc4c23)cc1 | 85.3 | 56 | 40 | 52 | 42 | –
O=c1c2cc(Br)ccc2nc2c3c4c(sc3ncn12)CCCC4 | 128 | 71 | 60 | 68 | 63 | –
O=c1c2ccccc2nc2c3c(-c4ccc([N+](=O)[O-])cc4)cc(-c4ccc([N+](=O)[O-])cc4)nc3ncn12 | 83.7 | 23 | 5 | 11 | 11 | –
O=c1c2cc(Br)ccc2nc2c3c(-c4ccc(Cl)cc4)csc3ncn12 | 90.5 | 50 | 26 | 44 | 29 | –
Cc1sc2ncn3c(=O)c4cc(Br)ccc4nc3c2c1C | 146 | 76 | 63 | 71 | 66 | –
O=c1c2ccccc2nc2c3c(-c4ccc(Cl)cc4)csc3ncn12 | 124 | 57 | 37 | 53 | 42 | Non-toxic
O=c1c2cc(Br)cc(Br)c2nc2c3c4c(sc3ncn12)CCCC4 | 104 | 21 | 5 | 15 | 4 | –
COc1ccc(-c2cc(-c3cccc([N+](=O)[O-])c3)c3c(ncn4c(=O)c5cc(Br)ccc5nc34)n2)cc1 | 101 | 30 | 12 | 25 | 13 | –
COc1ccc(-c2csc3ncn4c(=O)c5cc(Br)ccc5nc4c23)cc1 | 82.2 | 70 | 50 | 59 | 53 | –
COc1ccc2c(c1)c(CC(=O)O)c(C)n2C(=O)c1ccc(Cl)cc1 [INDOMETHACIN] | – | 83 | 72 | 79 | 76 | Toxic
Cc1ccc(-c2cc(-c3ccccc3)nc3ncn4c(=O)c5ccccc5nc4c23)cc1 | 91.8 | 20 | 8 | 15 | 8 | –
Cc1ccc(-c2csc3ncn4c(=O)c5ccccc5nc4c23)cc1 | 230 | 68 | 48 | 62 | 51 | Non-toxic
Cc1sc2ncn3c(=O)c4cc(Br)cc(Br)c4nc3c2c1C | 95.7 | 27 | 10 | 22 | 11 | –
O=c1c2ccccc2nc2c3c(-c4ccccc4)cc(-c4ccc(Cl)cc4)nc3ncn12 | 80.6 | 34 | 18 | 26 | 18 | –
Cc1ccc(-c2cc(-c3ccccc3)nc3ncn4c(=O)c5cc(Br)ccc5nc4c23)cc1 | 78.1 | 70 | 57 | 68 | 60 | Non-toxic
O=c1c2cc(Br)ccc2nc2c3c(-c4ccc([N+](=O)[O-])cc4)cc(-c4ccc([N+](=O)[O-])cc4)nc3ncn12 | 101 | 28 | 10 | 22 | 11 | –
O=c1c2ccccc2nc2c3c4c(sc3ncn12)CCCC4 | 228 | 81 | 70 | 75 | 71 | Non-toxic

Further lines, with some results ahead:

IC50 [4] [µM] | SMILES | inhibition in vivo at 50 mg/kg (Rattus norvegicus [1]) [%] | inhibition in vivo at 50 mg/kg (Rattus norvegicus [2]) [%] | inhibition in vivo at 50 mg/kg (Rattus norvegicus [3]) [%] | inhibition in vivo at 50 mg/kg (Rattus norvegicus [5]) [%] | Activity (Rattus norvegicus [6])
72.5 | Cc1ccc(-c2cc(Cc3ccco3)c3c(ncn4c(=O)c5cc(Br)ccc5nc34)n2)cc1 | 41 | 13 | 37 | 24 | –
60.5 | COc1ccc(-c2csc3ncn4c(=O)c5cc(Br)cc(Br)c5nc4c23)cc1 | 31 | 15 | 29 | 16 | –
72.1 | COc1ccc(-c2cc(-c3ccccc3)nc3ncn4c(=O)c5ccccc5nc4c23)cc1 | 22 | 7 | 18 | 8 | –
52.4 | Cc1ccc(-c2cc(-c3ccccc3)nc3ncn4c(=O)c5cc(Br)cc(Br)c5nc4c23)cc1 | 72 | 59 | 70 | 62 | Non-toxic
72 | COc1ccc(-c2cc(-c3cccc([N+](=O)[O-])c3)c3c(ncn4c(=O)c5cc(Br)cc(Br)c5nc34)n2)cc1 | 78 | 65 | 74 | 68 | Non-toxic
56.4 | Cc1ccc(-c2cc(Cc3ccco3)c3c(ncn4c(=O)c5ccccc5nc34)n2)cc1 | 20 | 11 | 22 | 6 | –
72.5 | O=c1c2cc(Br)cc(Br)c2nc2c3c(-c4ccc([N+](=O)[O-])cc4)cc(-c4ccc([N+](=O)[O-])cc4)nc3ncn12 | 56 | 46 | 54 | 47 | –
66.9 | COc1ccc(-c2csc3ncn4c(=O)c5ccccc5nc4c23)cc1 | 74 | 57 | 71 | 69 | Non-toxic
33.7 | COc1ccc(-c2cc(-c3ccccc3)nc3ncn4c(=O)c5cc(Br)cc(Br)c5nc4c23)cc1 | 86 | 76 | 82 | 78 | Non-toxic
61.9 | Cc1ccc(-c2csc3ncn4c(=O)c5cc(Br)cc(Br)c5nc4c23)cc1 | 37 | 20 | 33 | 22 | –
24.7 | CC(C)Cn1c(=O)n(C)c(=O)c2nc[nH]c21 [ISOBUTYLMETHYLXANTHINE] | – | – | – | – | –
78 | O=c1c2cc(Br)cc(Br)c2nc2c3c(-c4ccccc4)cc(-c4ccc(Cl)cc4)nc3ncn12 | 47 | 28 | 42 | 30 | –
76.6 | COc1ccc(-c2cc(-c3ccccc3)nc3ncn4c(=O)c5cc(Br)ccc5nc4c23)cc1 | 44 | 26 | 41 | 28 | –
57.6 | Cc1ccc(-c2cc(-c3ccc(Cl)cc3)c3c(ncn4c(=O)c5cc(Br)cc(Br)c5nc34)n2)cc1 | 83 | 72 | 80 | 78 | –
39.9 | COc1ccc(-c2cc(-c3cccc([N+](=O)[O-])c3)c3c(ncn4c(=O)c5ccccc5nc34)n2)cc1 | 16 | 3 | 9 | 3 | –
66.4 | Cc1ccc(-c2cc(-c3ccc(Cl)cc3)c3c(ncn4c(=O)c5cc(Br)ccc5nc34)n2)cc1 | 89 | 80 | 87 | 82 | –
